The results in this text go back to ChEMBL document CHEMBL4371054, “Dual inhibition of Kif15 by oxindole and quinazolinedione chemical probes” (Bioorg Med Chem Lett, 2019).

The target of assay [1] is T1, Kinesin-like protein KIF11 (Homo sapiens) (UniProt P52732).
T1 sequence (whole entry): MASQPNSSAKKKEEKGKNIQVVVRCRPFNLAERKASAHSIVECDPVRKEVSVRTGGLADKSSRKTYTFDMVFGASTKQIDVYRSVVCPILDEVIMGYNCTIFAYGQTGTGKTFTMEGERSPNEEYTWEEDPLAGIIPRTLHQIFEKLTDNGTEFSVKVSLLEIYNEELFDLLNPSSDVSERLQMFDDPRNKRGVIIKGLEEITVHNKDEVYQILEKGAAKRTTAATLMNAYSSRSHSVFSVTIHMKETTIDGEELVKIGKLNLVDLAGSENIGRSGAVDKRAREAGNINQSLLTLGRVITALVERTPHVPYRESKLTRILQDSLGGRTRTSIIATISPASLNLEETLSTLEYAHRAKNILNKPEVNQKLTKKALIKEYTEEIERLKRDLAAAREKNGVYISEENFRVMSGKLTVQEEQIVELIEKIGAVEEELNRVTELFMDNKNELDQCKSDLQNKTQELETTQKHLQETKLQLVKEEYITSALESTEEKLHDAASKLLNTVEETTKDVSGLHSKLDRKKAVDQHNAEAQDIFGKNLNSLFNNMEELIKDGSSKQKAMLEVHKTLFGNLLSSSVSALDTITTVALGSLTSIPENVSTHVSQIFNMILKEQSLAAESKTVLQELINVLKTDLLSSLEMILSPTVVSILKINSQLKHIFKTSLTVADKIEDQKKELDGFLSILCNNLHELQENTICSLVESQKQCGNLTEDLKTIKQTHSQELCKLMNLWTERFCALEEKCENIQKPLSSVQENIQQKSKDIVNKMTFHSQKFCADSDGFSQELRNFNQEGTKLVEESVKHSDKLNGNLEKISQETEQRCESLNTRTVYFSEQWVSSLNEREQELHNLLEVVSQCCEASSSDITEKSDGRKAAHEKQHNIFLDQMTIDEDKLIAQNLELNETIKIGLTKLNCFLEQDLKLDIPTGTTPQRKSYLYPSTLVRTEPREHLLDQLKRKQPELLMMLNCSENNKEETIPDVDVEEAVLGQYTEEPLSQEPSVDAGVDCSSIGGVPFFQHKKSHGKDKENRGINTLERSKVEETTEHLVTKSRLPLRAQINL
As to the kind of experiment: Inhibition of Eg5 (unknown origin) assessed as reduction in Alexa-594 labelled microtubule gliding at 30 uM measured every 2 secs for 20 secs by epifluorescence microscopic analysis relative to control.

Assay [2] concerns the target T2, Kinesin-like protein KIF15 (Homo sapiens) (UniProt Q9NS87).
T2 sequence (whole entry): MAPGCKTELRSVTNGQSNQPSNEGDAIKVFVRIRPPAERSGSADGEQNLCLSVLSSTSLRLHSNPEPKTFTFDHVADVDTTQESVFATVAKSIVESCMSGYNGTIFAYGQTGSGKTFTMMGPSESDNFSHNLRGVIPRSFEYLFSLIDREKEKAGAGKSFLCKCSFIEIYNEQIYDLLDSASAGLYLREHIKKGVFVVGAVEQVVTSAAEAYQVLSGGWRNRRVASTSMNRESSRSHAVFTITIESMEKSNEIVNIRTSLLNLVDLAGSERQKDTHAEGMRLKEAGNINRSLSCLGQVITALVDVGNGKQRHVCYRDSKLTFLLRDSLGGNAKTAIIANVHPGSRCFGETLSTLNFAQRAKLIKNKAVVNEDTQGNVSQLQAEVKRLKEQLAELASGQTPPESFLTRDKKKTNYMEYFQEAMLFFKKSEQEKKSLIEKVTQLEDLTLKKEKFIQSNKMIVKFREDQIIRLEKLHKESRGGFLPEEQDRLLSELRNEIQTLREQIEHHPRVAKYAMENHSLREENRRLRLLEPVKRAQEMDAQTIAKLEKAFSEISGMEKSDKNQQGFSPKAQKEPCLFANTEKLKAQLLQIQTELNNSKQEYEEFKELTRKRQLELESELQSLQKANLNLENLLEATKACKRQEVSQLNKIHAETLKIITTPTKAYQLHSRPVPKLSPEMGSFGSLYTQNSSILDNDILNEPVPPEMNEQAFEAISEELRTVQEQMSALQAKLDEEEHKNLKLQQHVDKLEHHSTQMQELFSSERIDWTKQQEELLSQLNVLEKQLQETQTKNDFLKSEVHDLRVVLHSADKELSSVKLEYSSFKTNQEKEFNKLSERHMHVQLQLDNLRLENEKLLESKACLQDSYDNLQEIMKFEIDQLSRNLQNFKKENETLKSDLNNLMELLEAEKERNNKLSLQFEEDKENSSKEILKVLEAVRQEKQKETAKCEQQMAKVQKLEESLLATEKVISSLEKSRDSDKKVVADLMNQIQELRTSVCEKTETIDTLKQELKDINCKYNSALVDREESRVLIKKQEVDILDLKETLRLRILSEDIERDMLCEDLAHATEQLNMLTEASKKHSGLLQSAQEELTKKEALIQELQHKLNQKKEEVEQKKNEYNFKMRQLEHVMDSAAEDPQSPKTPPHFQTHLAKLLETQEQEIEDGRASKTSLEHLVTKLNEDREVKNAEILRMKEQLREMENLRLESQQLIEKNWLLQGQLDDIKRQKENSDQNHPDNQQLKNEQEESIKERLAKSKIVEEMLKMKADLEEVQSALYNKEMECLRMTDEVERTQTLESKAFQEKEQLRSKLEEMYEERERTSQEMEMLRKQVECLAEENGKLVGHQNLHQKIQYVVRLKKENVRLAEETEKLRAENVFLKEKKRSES
Put plainly: Inhibition of Kif15 in TP53-deficient human RPE1 cells assessed as cells with bipolar pre-anaphase microtubule structure at 25 uM after 24 hrs by Hoechst 33342 staining based immunofluorescence microscopic analysis (reference value: 90 to 94%). Further details: scale not given: the % may be the effect or the level left.

For assay [3], the target named is T2, Kinesin-like protein KIF15 (Homo sapiens). Put plainly: Inhibition of Kif15 in K51-resistant human KIRC1 cells assessed as increase in cells with monopolar spindles after 24 hrs by Hoechst 33342 staining based immunofluorescence microscopic analysis.
The target in assay [4] is T3, Aurora kinase A (Homo sapiens) (UniProt O14965).
T3 sequence (whole entry): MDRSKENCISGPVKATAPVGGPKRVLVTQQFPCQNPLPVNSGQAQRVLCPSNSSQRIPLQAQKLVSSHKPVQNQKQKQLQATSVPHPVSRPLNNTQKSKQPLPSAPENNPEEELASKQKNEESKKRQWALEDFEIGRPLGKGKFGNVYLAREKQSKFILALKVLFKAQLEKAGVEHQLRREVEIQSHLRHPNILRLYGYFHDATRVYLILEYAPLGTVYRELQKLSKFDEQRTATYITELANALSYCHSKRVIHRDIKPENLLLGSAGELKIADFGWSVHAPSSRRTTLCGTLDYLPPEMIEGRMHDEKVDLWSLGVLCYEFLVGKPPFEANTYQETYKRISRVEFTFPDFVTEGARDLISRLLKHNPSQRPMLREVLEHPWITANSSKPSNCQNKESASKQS
As to the kind of experiment: Inhibition of AURKA (unknown origin) at 1 uM relative to control.

A word on the inhibition: it is the share of the control response that was lost under treatment. Take `O=C1Nc2ccc(C(=O)c3ccco3)cc2/C1=C/c1cc(Cl)c(O)c(Cl)c1`: the inhibition was 19.8% in assay [1], “Dose-dependent effect” in assay [3] and 67% in assay [4]. For the same molecule, in assay [2], the Activity was 84%.
